For 25 compounds, DC50, GI50 and Degradation rate % results are on record in patent EP4763845A1, “CYANO AROMATIC RING DERIVATIVE AND PHARMACEUTICAL USE THEREOF” (Haisco Pharmaceutical Group Co., Ltd., priority 2023, dated 2025).

A value given as a limit tells only on which side of the number the result lay.

As a reminder, the DC50 is the concentration giving 50% degradation. The GI50 is the concentration giving 50% growth inhibition.

The target in one assay is T1, AR protein (Homo sapiens, UniProt P10275).
T1 construct: VCap is a human prostate cancer cell line purchased from ATCC; host or cells: VCaP human prostate cancer cells
T1 sequence (P10275 1-920): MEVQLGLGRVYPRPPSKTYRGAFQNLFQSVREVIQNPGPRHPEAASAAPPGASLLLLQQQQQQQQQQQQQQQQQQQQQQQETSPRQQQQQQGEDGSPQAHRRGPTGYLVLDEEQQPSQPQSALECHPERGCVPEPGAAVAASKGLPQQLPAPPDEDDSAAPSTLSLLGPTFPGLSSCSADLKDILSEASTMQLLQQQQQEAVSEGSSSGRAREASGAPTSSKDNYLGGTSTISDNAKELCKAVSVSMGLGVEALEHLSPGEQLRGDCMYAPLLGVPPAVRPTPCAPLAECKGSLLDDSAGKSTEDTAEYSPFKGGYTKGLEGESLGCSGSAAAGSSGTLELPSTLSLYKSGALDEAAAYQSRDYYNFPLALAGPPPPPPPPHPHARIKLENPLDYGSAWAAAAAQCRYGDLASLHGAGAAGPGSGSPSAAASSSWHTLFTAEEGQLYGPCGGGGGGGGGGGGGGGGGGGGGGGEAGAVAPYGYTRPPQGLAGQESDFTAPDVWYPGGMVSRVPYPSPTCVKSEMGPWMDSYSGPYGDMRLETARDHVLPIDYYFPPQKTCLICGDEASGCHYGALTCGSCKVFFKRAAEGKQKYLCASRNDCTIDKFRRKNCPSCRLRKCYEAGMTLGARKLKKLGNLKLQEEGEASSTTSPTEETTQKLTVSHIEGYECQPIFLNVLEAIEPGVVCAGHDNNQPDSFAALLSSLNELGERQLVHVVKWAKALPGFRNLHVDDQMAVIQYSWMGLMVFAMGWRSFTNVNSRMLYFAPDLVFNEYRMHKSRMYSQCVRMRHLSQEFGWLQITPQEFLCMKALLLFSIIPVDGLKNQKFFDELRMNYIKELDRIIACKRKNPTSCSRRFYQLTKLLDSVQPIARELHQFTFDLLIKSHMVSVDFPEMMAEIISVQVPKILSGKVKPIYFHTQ
The assay can be described thus: Detection of AR degradation in VCaP cells (automated western blot). It is filed as cell-based. The conditions noted are these: for DC50: degradation of AR protein in VCaP cells, 24 hours incubation, read-out: DC50; for Degradation rate %: AR protein in VCaP cells, concentration of 30 nM, 24 hours. The method, then:
VCap is a human prostate cancer cell line purchased from ATCC and cultured under the following conditions: DMEM + 10% FBS + 1% penicillin-streptomycin solution. The cells were cultured in a 37°C, 5% CO2 incubator. The cells were seeded in a 6-well plate, with 5 × 10^5 cells/well. After seeding, compounds at various concentrations were added, and the plate was incubated for 24 hours in the 37°C, 5% CO2 incubator. Following incubation, the cells were harvested and RIPA lysis buffer (beyotime, Cat. P0013B) was added. The cells were lysed on ice for 15 minutes and centrifuged at 12,000 rpm at 4°C for 10 minutes. The supernatant protein samples were collected and the protein was quantified using the BCA kit (Beyotime, Cat. P0009). Then the protein was diluted to 0.25 mg/mL. The expressions of AR (CST, Cat.5153S) and the internal reference β-actin (CST, Cat. 3700S) were detected using a fully automated western blot quantitative analyser (Proteinsimple). Using the "Compass for SW" software, the relative peak area of AR was calculated when the internal reference area was 10,000. The proportion of AR relative to the solvent control group at various drug concentrations was calculated according to Equation (1), where ARtreat represents the relative peak area of the compound-treated group, and ARsolvent represents the relative peak area of the solvent control group. The processed data obtained from Equation (1) were analysed using GraphPad Prism 8.3.0 software, and the DC50 value was calculated using a four-parameter nonlinear regression model. The degradation rate at a specified concentration was determined as 100-AR%. AR% = ARtreat/ ARsolvent × 100% [formula]
(In general: A western blot detects proteins with antibodies after separation by electrophoresis.)

The subject of another assay is VCaP cells. As to the kind of experiment: VCaP cell proliferation inhibition experiment (CellTiter-Glo). It is filed as cell-based. The conditions noted are these: Homo sapiens, 168 h. The method, then:
After centrifugation and resuspension, viable cell counting was performed using a Vi-Cell XR cell counter. […] Then, 180 µl of the cell suspension was added per well to a 96-well cell culture plate at a cell density of 7,500 cells/well. At the time of seeding, T0 wells were also prepared. The following day, R1881 at a final concentration of 0.1 nM and compounds at various concentrations were added. The plate was placed back into the incubator and cultured for an additional 7 days. At the time of compound addition, the T0 plate was measured using the CellTiter-Glo (CTG) kit (Promega, Cat. No. G7572) and recorded as RLU0. Following incubation, 75 µl of pre-thawed and room temperature-equilibrated CellTiter-Glo solution was added to each well. […] The results were processed according to Equation (2). […] Growth% = (RLUcompound−RLU0)/(RLUcontrol−RLU0) × 100% [formula]

Take `[2H]C([2H])([2H])Oc1cc(O[C@H]2C(C)(C)[C@H](NC(=O)c3ccc(N4CCC(CN5CCN6c7cc(F)c(C8CCC(=O)NC8=O)cc7CC[C@H]6C5)CC4)cc3)C2(C)C)ccc1C#N` (stereo partly shown) [Compound 37]: the DC50 at AR protein is under 100 nM. Moreover, the GI50 in the assay on VCaP cells is under 300 nM. For `[2H]C([2H])([2H])Oc1cc(O[C@H]2C(C)(C)[C@H](NC(=O)c3ccc(N4CCC(CN5CCN6c7cc(F)c(C(=O)N[C@H]8CCC(=O)NC8=O)cc7CC[C@@H]6C5)CC4)cc3)C2(C)C)ccc1C#N` [Compound 40], the DC50 on AR protein was under 100 nM. In the assay with VCaP cells, this compound displayed a GI50 of under 300 nM. In the assay on VCaP cells, `CC1(C)[C@H](NC(=O)c2ccc(N3CCC(CN4CCN5c6cc(F)c(C(=O)N[C@H]7CCC(=O)NC7=O)cc6CC[C@@H]5C4)CC3)cc2)C(C)(C)[C@H]1Oc1ccc(C#N)c(Cl)c1` [Compound 52] returned a GI50 of under 300 nM. For `[2H]C([2H])([2H])Oc1cc(O[C@H]2C(C)(C)[C@H](NC(=O)c3ccc(N4CCC(CN5CCN6c7cc(F)c(C8CCC(=O)NC8=O)cc7CC[C@H]6C5)CC4)nn3)C2(C)C)ccc1C#N` (stereo partly shown) [Compound 86], the GI50 in the assay with VCaP cells is under 300 nM. In turn, `[2H]C([2H])([2H])Oc1cc(O[C@H]2C(C)(C)[C@H](NC(=O)c3ccc(N4CCC(CN5CCN6c7cc(F)c(C(=O)N[C@H]8CCC(=O)NC8=O)cc7CC[C@@H]6C5)CC4)nn3)C2(C)C)ccc1C#N` [Compound 87] displayed a GI50 in the assay with VCaP cells of under 500 nM. Regarding `COc1cc(O[C@H]2C(C)(C)[C@H](NC(=O)c3ccc(N4CCC(CN5CCN6c7ncc(C8CCC(=O)NC8=O)cc7CC[C@@H]6C5)CC4)cc3)C2(C)C)ccc1C#N` (stereo partly shown) [Compound 93], at AR protein, the Degradation rate % is reported as over 70%. `[2H]C([2H])([2H])Oc1cc(O[C@H]2C(C)(C)[C@H](NC(=O)c3ccc(N4CCC5(CC4)CC(N4CCN6c7cc(F)c(N8CCC(=O)NC8=O)cc7CC[C@@H]6C4)C5)cc3)C2(C)C)ccc1C#N` [Compound 94]: the GI50 with VCaP cells was under 300 nM. On AR protein, `CC1(C)[C@H](NC(=O)c2ccc(N3CCC(CN4CCN5c6cc(F)c(C7CCC(=O)NC7=O)cc6CC[C@@H]5C4)CC3)cc2)C(C)(C)[C@H]1Oc1ccc(C#N)c(C2CC2)c1` (stereo partly shown) [Compound 117] showed a Degradation rate % of over 70%.

For the compound `CC1(C)[C@H](NC(=O)c2ccc(N3CCC(CN4CCN5c6cc(F)c(C(=O)N[C@H]7CCC(=O)NC7=O)cc6CC[C@@H]5C4)CC3)cc2)C(C)(C)[C@H]1Oc1ccc(C#N)c(C2CC2)c1` [Compound 119], the Degradation rate % at AR protein is over 70%.

With `COc1cc(O[C@H]2C(C)(C)[C@H](NC(=O)c3ccc(N4CCC5(CC4)CC(CN4CCN6c7cc(F)c(C(=O)N[C@H]8CCC(=O)NC8=O)cc7CC[C@@H]6C4)C5)cc3)C2(C)C)ccc1C#N` [Trifluoroacetate of compound 5], the DC50 at AR protein is under 100 nM. On to `COc1cc(O[C@H]2C(C)(C)[C@H](NC(=O)c3ccc(N4CCC5(CC4)CC(CN4CCN6c7cc(F)c(C8CCC(=O)NC8=O)cc7CC[C@@H]6C4)C5)cc3)C2(C)C)ccc1C#N` (stereo partly shown) [Trifluoroacetate of compound 9], for which, on AR protein, the DC50 was under 100 nM. For `COc1cc(O[C@H]2C(C)(C)[C@H](NC(=O)c3ccc(N4CCC5(CC4)CC(CN4CCN6c7cc(F)c(C8CCC(=O)NC8=O)cc7CC[C@H]6C4)C5)cc3)C2(C)C)ccc1C#N` (stereo partly shown) [Trifluoroacetate of compound 10], at AR protein, the DC50 is under 100 nM. For the compound `COc1cc(O[C@H]2C(C)(C)[C@H](NC(=O)c3ccc(N4CCC5(CC4)CC(N4CCN6c7cc(F)c(C(=O)N[C@H]8CCC(=O)NC8=O)cc7CC[C@H]6C4)C5)cc3)C2(C)C)ccc1C#N` [Trifluoroacetate of compound 18], on AR protein, the DC50 is under 100 nM. Turning to `COc1cc(O[C@H]2C(C)(C)[C@H](NC(=O)c3ccc(N4CCC(N5CCN6c7cc(F)c(C8CCC(=O)NC8=O)cc7CC[C@@H]6C5)CC4)cc3)C2(C)C)ccc1C#N` (stereo partly shown) [Trifluoroacetate of compound 20], at AR protein, the DC50 was under 100 nM. As for `COc1cc(O[C@H]2C(C)(C)[C@H](NC(=O)c3ccc(N4CCC(N5CCN6c7cc(F)c(C8CCC(=O)NC8=O)cc7CC[C@H]6C5)CC4)cc3)C2(C)C)ccc1C#N` (stereo partly shown) [Trifluoroacetate of compound 21], the DC50 on AR protein was under 100 nM. For the compound `COc1cc(O[C@H]2C(C)(C)[C@H](NC(=O)c3ccc(N4CCC(N5CCN6c7cc(F)c(C(=O)N[C@H]8CCC(=O)NC8=O)cc7CC[C@@H]6C5)CC4)cc3)C2(C)C)ccc1C#N` [Trifluoroacetate of compound 22], the DC50 at AR protein was under 100 nM.

For the compound `COc1cc(O[C@H]2C(C)(C)[C@H](NC(=O)c3ccc(N4CCC(N5CCN6c7cc(F)c(C(=O)N[C@H]8CCC(=O)NC8=O)cc7CC[C@H]6C5)CC4)cc3)C2(C)C)ccc1C#N` [Trifluoroacetate of compound 24], the DC50 at AR protein was under 100 nM. For `COc1cc(O[C@H]2C(C)(C)[C@H](NC(=O)c3ccc(N4CCC(N5CCN6c7cc(F)c(C(=O)N[C@@H]8CCC(=O)NC8=O)cc7CC[C@H]6C5)CC4)cc3)C2(C)C)ccc1C#N` [Trifluoroacetate of compound 25], the DC50 at AR protein was under 100 nM. As to `CC1(C)[C@H](NC(=O)c2ccc(N3CCC(CN4CCN5c6cc(F)c(N7CCC(=O)NC7=O)cc6CC[C@H]5C4)CC3)cc2)C(C)(C)[C@H]1Oc1ccc(C#N)c2ncccc12` [Trifluoroacetate of compound 33], the DC50 on AR protein was under 100 nM. In the assay on VCaP cells, the GI50 is under 500 nM. As for `[2H]C([2H])([2H])Oc1cc(O[C@H]2C(C)(C)[C@H](NC(=O)c3ccc(N4CCC5(CC4)CC(CN4CCN6c7cc(F)c(N8CCC(=O)NC8=O)cc7CC[C@@H]6C4)C5)cc3)C2(C)C)ccc1C#N` [Trifluoroacetate of compound 44], the DC50 at AR protein was under 100 nM. Same read-out and setting: in the case of `COc1cc(O[C@H]2C(C)(C)[C@H](NC(=O)c3ccc(N4CCC(CN5CCN6c7cc(F)c(N8CCC(=O)NC8=O)cc7CC[C@@H]6C5)CC4)nn3)C2(C)C)ccc1C#N` [Trifluoroacetate of compound 62] it was under 100 nM.

Consider `COc1cc(O[C@H]2C(C)(C)[C@H](NC(=O)c3ccc(N4CCC(CN5CCN6c7cc(F)c(N8CCC(=O)NC8=O)cc7CC[C@H]6C5)CC4)nn3)C2(C)C)ccc1C#N` [Trifluoroacetate of compound 63], for which the DC50 on AR protein was under 100 nM. Regarding `COc1cc(O[C@H]2C(C)(C)[C@H](NC(=O)c3ccc(N4CCC5(CC4)CC(N4CCN6c7cc(F)c(N8CCC(=O)NC8=O)cc7CC[C@H]6C4)C5)cc3)C2(C)C)ccc1C#N` [Trifluoroacetate of compound 84], the DC50 on AR protein is under 100 nM. The compound `CC#CCOc1cc(O[C@H]2C(C)(C)[C@H](NC(=O)c3ccc(N4CCC(CN5CCN6c7cc(F)c(C(=O)N[C@H]8CCC(=O)NC8=O)cc7CC[C@@H]6C5)CC4)cc3)C2(C)C)ccc1C#N` [Trifluoroacetate of compound 99] yielded a Degradation rate % on AR protein of over 70%.

At AR protein, `COc1cc(O[C@H]2C(C)(C)[C@H](NC(=O)c3ccc(N4CCC5(CC4)CC(N4CCN6c7cc(F)c(C8CCC(=O)NC8=O)cc7CC[C@H]6C4)C5)cc3)C2(C)C)ccc1C#N` (stereo partly shown) [Trifluoroacetate of compound 121] gave a Degradation rate % of over 70%.
